Entries after “also recorded” stand apart in the source; their conditions may differ.
Key:
[1] = target: T1, Wild type α-galactosidase A (Replagal®, agalsidase alfa) (Homo sapiens, UniProt P06280); assay: Inhibition of agalsidase alfa (Replagal), cell free; format: biochemical; conditions: for reduction of the enzyme activity, Ambroxol only: FIG. 8 inlay
T1 construct: purchased Shire Pharmaceuticals Replagal
T1 sequence (P06280 32-429): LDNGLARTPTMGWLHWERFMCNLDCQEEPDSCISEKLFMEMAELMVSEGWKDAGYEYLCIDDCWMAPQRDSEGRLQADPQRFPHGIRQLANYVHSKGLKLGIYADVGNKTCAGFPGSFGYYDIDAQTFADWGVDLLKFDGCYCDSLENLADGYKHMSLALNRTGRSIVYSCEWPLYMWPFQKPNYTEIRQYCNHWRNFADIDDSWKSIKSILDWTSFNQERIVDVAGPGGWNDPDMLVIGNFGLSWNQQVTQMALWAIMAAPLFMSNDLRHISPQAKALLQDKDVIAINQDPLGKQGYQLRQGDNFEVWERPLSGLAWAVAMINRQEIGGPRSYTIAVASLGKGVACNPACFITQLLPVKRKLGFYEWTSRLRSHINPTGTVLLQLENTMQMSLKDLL

[2] = target: GLA mutants (alpha-galactosidase A) (Homo sapiens, UniProt P06280, G328A); conditions: GLA mutant G328A; Ambroxol in combination with DGJ
GLA mutants (alpha-galactosidase A) (Homo sapiens, UniProt P06280, G328A), sequence (P06280 32-429 G328A): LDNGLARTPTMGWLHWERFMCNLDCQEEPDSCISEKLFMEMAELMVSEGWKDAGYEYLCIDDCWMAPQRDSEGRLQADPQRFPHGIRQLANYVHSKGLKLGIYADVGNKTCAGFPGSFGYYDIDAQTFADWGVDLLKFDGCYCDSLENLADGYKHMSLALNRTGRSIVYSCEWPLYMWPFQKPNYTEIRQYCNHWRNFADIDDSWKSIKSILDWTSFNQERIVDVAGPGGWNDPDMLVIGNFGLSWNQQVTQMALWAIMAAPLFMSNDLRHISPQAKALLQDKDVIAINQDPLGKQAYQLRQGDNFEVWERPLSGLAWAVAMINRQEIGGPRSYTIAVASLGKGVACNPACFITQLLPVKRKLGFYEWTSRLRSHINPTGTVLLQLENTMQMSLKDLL

[3] = target: GLA mutants (alpha-galactosidase A) (Homo sapiens, UniProt P06280, R356W); conditions: GLA mutant R356W; Ambroxol in combination with DGJ
GLA mutants (alpha-galactosidase A) (Homo sapiens, UniProt P06280, R356W), sequence (P06280 32-429 R356W): as the sequence (P06280 32-429 G328A) above, with A297G, R325W counted along it

[4] = system: GLA mutants (alpha-galactosidase A)
[5] = target: GLA mutants (alpha-galactosidase A) (Homo sapiens, UniProt P06280, H225R); conditions: GLA mutant H225R; Ambroxol in combination with DGJ
GLA mutants (alpha-galactosidase A) (Homo sapiens, UniProt P06280, H225R), sequence (P06280 32-429 H225R): as the sequence (P06280 32-429 G328A) above, with H194R, A297G counted along it

[6] = target: GLA mutants (alpha-galactosidase A) (Homo sapiens, UniProt P06280, A156V); conditions: GLA mutant A156V; Ambroxol in combination with DGJ
GLA mutants (alpha-galactosidase A) (Homo sapiens, UniProt P06280, A156V), sequence (P06280 32-429 A156V): as the sequence (P06280 32-429 G328A) above, with A125V, A297G counted along it

[7] = target: GLA mutants (alpha-galactosidase A) (Homo sapiens, UniProt P06280, R363H); conditions: GLA mutant R363H; Ambroxol in combination with DGJ
GLA mutants (alpha-galactosidase A) (Homo sapiens, UniProt P06280, R363H), sequence (P06280 32-429 R363H): as the sequence (P06280 32-429 G328A) above, with A297G, R332H counted along it

[8] = target: GLA mutants (alpha-galactosidase A) (Homo sapiens, UniProt P06280, E59K); conditions: GLA mutant E59K; Ambroxol in combination with DGJ
GLA mutants (alpha-galactosidase A) (Homo sapiens, UniProt P06280, E59K), sequence (P06280 32-429 E59K): as the sequence (P06280 32-429 G328A) above, with E28K, A297G counted along it

[9] = target: GLA mutants (alpha-galactosidase A) (Homo sapiens, UniProt P06280, R301Q); conditions: GLA mutant R301Q; Ambroxol in combination with DGJ
GLA mutants (alpha-galactosidase A) (Homo sapiens, UniProt P06280, R301Q), sequence (P06280 32-429 R301Q): as the sequence (P06280 32-429 G328A) above, with R270Q, A297G counted along it

[10] = target: GLA mutants (alpha-galactosidase A) (Homo sapiens, UniProt P06280, M51I); conditions: GLA mutant M51I; Ambroxol in combination with DGJ
GLA mutants (alpha-galactosidase A) (Homo sapiens, UniProt P06280, M51I), sequence (P06280 32-429 M51I): as the sequence (P06280 32-429 G328A) above, with M20I, A297G counted along it

[11] = target: GLA mutants (alpha-galactosidase A) (Homo sapiens, UniProt P06280, T410I); conditions: GLA mutant T410I; Ambroxol in combination with DGJ
GLA mutants (alpha-galactosidase A) (Homo sapiens, UniProt P06280, T410I), sequence (P06280 32-429 T410I): as the sequence (P06280 32-429 G328A) above, with A297G, T379I counted along it

[12] = system: α-Gal A protein (GLA mutants); assay: Western blot of GLA protein levels in cells transfected with GLA mutants; format: cell-based; conditions: DGJ and Ambroxol compared to DGJ alone; FIG. 4
Procedure: Western blot analysis for the detection of α-Gal A protein was performed using a commercially available rabbit anti-α-Gal A polyclonal antibody ([H-104] Santa Cruz) Furthermore, a mouse GAPDH monoclonal antibody ([6C5] abcam) was used as an internal loading control.
The cells were then rinsed off from the wells, transferred to micro centrifuge tubes and spun at 14000×g for 10 minutes at 4° C. to pellet the cell debris. The supernatant was used for the analysis. After the determination of protein concentration, […] protein were mixed with a suitable volume of 5× Laemmli loading buffer, boiled for 5 minutes on a thermo shaker (Eppendorf), centrifuged at 14000×g for 10 minutes at 4° C. and loaded on a Criterion precast 4-15% Tris-HCl gel (Bio-Rad). Proteins were transferred electorophoretically to a Nitrocellulose (Amersham Hybond ECL) membrane (GE Healthcare). The membrane was blocked with 5% (w/v) non-fat dried skimmed milk in TBS-Tween 20 [10 mM Tris/HCl (pH 7.5) with 150 mM NaCl and 0.1% Tween 20] at room temperature for 1 hour, and then treated with a primary antibody against GAPDH diluted 1:10000 in a milk/blot solution [3% (w/v) non-fat dried skimmed milk in TBS-Tween 20] at 4° C. overnight. […] Following extensive washing with TBS-Tween 20, protein bands were visualized with an Odyssey Infrared Imager (Li-Cor) and quantified using the Odyssey software.

effect of Ambroxol on the inhibition of WT α-galactosidase A by DGJ ([1]; 40 μM Ambroxol): no effect | reduction of the enzyme activity, Ambroxol only ([1]; pH 4.5): No reduction | reduction of the enzyme activity, Ambroxol only ([1]; pH 6.7): No reduction | additive Ambroxol effect demonstrated [2]: * (*p≤0.1) | additive Ambroxol effect demonstrated [3]: **** (****p≤0.005) | additive Ambroxol effect demonstrated [5]: ** (**p≤0.05) | additive Ambroxol effect demonstrated [6]: **** (****p≤0.005) | additive Ambroxol effect demonstrated [7]: *** (***p≤0.01) | additive Ambroxol effect demonstrated [8]: **** (****p≤0.005) | additive Ambroxol effect demonstrated [9]: **** (****p≤0.005) | additive Ambroxol effect demonstrated [10]: ** (**p≤0.05) | additive Ambroxol effect demonstrated [11]: * (*p≤0.1)
SMILES: Nc1c(Br)cc(Br)cc1CN[C@H]1CC[C@H](O)CC1 [Ambroxol, 2-amino-3,5-dibromo-N-[trans-4-hydroxycyclohexyl]benzylamine]
effect of Ambroxol alone on the enzyme in the cell free assay ([1]; cell free): not inhibited; also recorded: neither an inhibitory nor a stimulating effect | effect on enzyme activity of the mutant forms of GLA ([4]; 40 μM Ambroxol alone, FIG. 1): no effect | activity of mutant alpha-galactosidase A, Ambroxol together with Galactose ([4]; compared to Galactose only, 100 mM galactose and 40 μM Ambroxol (FIG. 3B)): increased | significance of protein activity, Ambroxol and DGJ compared to DGJ alone ([4]; mutations E59K, A156V and G328A, FIG. 6): significant | amount of Gal A protein in the cell (Western blot) [12]: higher amount of Gal A

Reference: patent US20210228560A1 (Centogene IP GmbH, priority 2011, published 2021)
